Measurements: patent publication US12582640B2, “Treatment of lower respiratory tract infection with tradipitant” (Vanda Pharmaceuticals Inc., priority 2020, dated 2026)

Tested on: severe or critical COVID-19 infection
Assay: Randomized, double-blind, placebo-controlled study of tradipitant in hospitalized patients with COVID-19 pneumonia (interim analysis, ITT population)
Assay type: in vivo, human
Set-up: Mortality KM estimate: concentration or dose not given beside the values
Details: for Mortality hazard ratio (95% CI) / Hazard ratio (95% CI), responder as improvement of 2 or more points / Odds ratio (95% CI), ordinal score at Day 7 / Odds ratio (95% CI), ordinal score at Day 28: tradipitant vs placebo; for Mortality hazard ratio (95% CI) / Hazard ratio (95% CI), responder as improvement of 2 or more points: Cox model; for Odds ratio (95% CI), ordinal score at Day 7 / Odds ratio (95% CI), ordinal score at Day 28: proportional odds model
Excerpt: A randomized, double-blind, placebo-controlled study investigates the efficacy of tradipitant in the treatment of inflammatory lung injury and pneumonia associated with severe or critical COVID-19 infection, and improvement of clinical outcomes associated with severe or critical COVID-19 infection. Such improvements in clinical outcomes include reduction in long term pulmonary function deficits and pulmonary fibrosis.
Methods: Prospective participants attend a screening visit on study day −1 to 0 to assess the prospective patient's eligibility to participate. All enrolled patients are asked to undertake an initial physical examination and must satisfy inclusion and exclusion criteria before being enrolled into the study. A total sample size of 300 patients (150 per arm) provides approximately 93% power to detect a 20% difference of normalization in fever and oxygen saturation, assuming 50% and 70% normalization rates in placebo and tradipitant treatment groups respectively, based on a two-sided Fisher's Exact Test at a 5% significance level.
Inclusion criteria include: adults aged 18-90; confirmed laboratory COVID-19 infection by RT-PCR; confirmed pneumonia by chest radiograph or computed tomography; fever defined as temperature ≥36.6° C. armpit, ≥37.2° C. oral, or ≥37.8° C. rectal; and oxygen saturation of less than 92% on room air OR on mechanical ventilation OR increased work of breathing (WOB) on exam without respiratory support OR respiratory rate greater than 20 per minute. Exclusion criteria include: recent use of illicit drugs or alcohol abuse; known allergy to tradipitant or other neurokinin-1 antagonists; pregnancy; known HIV, HBV, or HCV infection; malignant tumor, other serious systemic diseases; and inability to provide informed consent or to have an authorized relative or designated person provide informed consent, or to comply with the protocol requirements.
Patients who meet the inclusion-exclusion criteria are randomized 1:1 to treatment with either 85 mg tradipitant twice daily (bid) per os (PO, i.e. orally) or matching placebo under double-blind conditions, in addition to standard of care for COVID-19 infection according to protocol at the treating hospital. In both arms, treatment with study medication continues for 14 days or until discharge from the hospital. In both tradipitant treatment and placebo study arms, patients are given one capsule of study medication to be taken orally every day in the morning prior to or at 9:00 am and one capsule of study medication to be taken orally every day in the evening approximately 12 hours later (±1 hour). Patients in the tradipitant treatment arm receive capsules containing 85 mg tradipitant, as well as spray-dried lactose monohydrate, microcrystalline cellulose (Avicel PH102 and PH200), povidone, croscarmellose sodium, sodium lauryl sulfate, and magnesium stearate as excipients. The tradipitant capsules are white opaque, hard gelatin capsules. Placebo capsules are provided in size and appearance identical to those containing tradipitant.
For patients requiring administration via nasogastric tube, the following procedure is used: 1) empty contents of one 85 mg capsule in a glass mortar and grind using a pestle until all granules are thoroughly crushed; 2) add 10 mL of water while continuing to grind to obtain a uniform dispersion; 3) draw up entire dispersion into a suitable syringe; 4) connect syringe tip to nasogastric tube and push entire syringe contents; and 5) rinse mortar and pestle with 5 mL of water and repeat steps 3) and 4). The crushing procedure results in the preparation of a uniform dispersion in water, which can then be administered through a nasogastric tube without clogging.
Patient assessments are performed in accordance with the schedule of evaluations detailed in Table 1 below.
Mortality is assessed as the proportion of participants with in-hospital mortality, and is evaluated per treatment arm. […]

[1] = Day 7, baseline ordinal score 3
[2] = Day 7, baseline ordinal score 4
[3] = Day 28, baseline ordinal score 2
[4] = Day 28, baseline ordinal score 3
[5] = Day 28, baseline ordinal score 4
[6] = ITT overall, >1 benefit for tradipitant
[7] = baseline ordinal score 2 (N = 4)
[8] = baseline ordinal score 3 (N = 13)
[9] = baseline ordinal score 4 (N = 9)
[10] = tradipitant arm, 85 mg bid PO plus standard of care, interim analysis

Compound: O=C(c1ccccc1Cl)c1cccnc1-c1nnn(Cc2cc(C(F)(F)F)cc(C(F)(F)F)c2)c1-c1ccncc1 [Tradipitant, {2-[1-(3,5-bistrifluoromethylbenzyl)-5-pyridin-4-yl-1H-[1,2,3]triazol-4-yl]-pyridin-3-yl}-(2-chlorophenyl)-methanone]
- Mortality KM estimate (Day 7, ITT overall): 9.8%
- No. of responders (improvement of 2 or more points) (Day 7, ITT overall (N = 28)): 13
- Mortality hazard ratio (95% CI) (Day 7, ITT overall, <1 benefit for tradipitant): 2.65
- Mortality KM estimate (Day 7, baseline ordinal score 2): 25.0%
- No. of responders (improvement of 2 or more points) (Day 7, baseline ordinal score 2 (N = 4)): 3
- Mortality KM estimate [1]: 0.0%
- No. of responders (improvement of 2 or more points) (Day 7, baseline ordinal score 3 (N = 13)): 2
- Hazard ratio (95% CI), responder as improvement of 2 or more points [1]: 2.19
- Mortality KM estimate [2]: 25.0%
- No. of responders (improvement of 2 or more points) (Day 7, baseline ordinal score 4 (N = 9)): 6
- Hazard ratio (95% CI), responder as improvement of 2 or more points [2]: 2.23
- Mortality hazard ratio (95% CI) [2]: 3.14
- Mortality KM estimate (Day 28, ITT overall): 20.4%
- No. of responders (improvement of 2 or more points) (Day 28, ITT overall (N = 28)): 16
- Mortality hazard ratio (95% CI) (Day 28, ITT overall, <1 benefit for tradipitant): 1.03
- Mortality KM estimate [3]: 50.0%
- No. of responders (improvement of 2 or more points) (Day 28, baseline ordinal score 2 (N = 4)): 3
- Mortality hazard ratio (95% CI) [3]: 1.84
- Mortality KM estimate [4]: 9.1%
- No. of responders (improvement of 2 or more points) (Day 28, baseline ordinal score 3 (N = 13)): 4
- Hazard ratio (95% CI), responder as improvement of 2 or more points [4]: 1.08
- Mortality hazard ratio (95% CI) [4]: 0.95
- Mortality KM estimate [5]: 25.0%
- No. of responders (improvement of 2 or more points) (Day 28, baseline ordinal score 4 (N = 9)): 7
- Hazard ratio (95% CI), responder as improvement of 2 or more points [5]: 1.59
- Mortality hazard ratio (95% CI) [5]: 1.24
- Median time to responder (95% CI) (Day 28 analysis, ITT overall (N = 28), listed as tradipitant): 10 days
- No. of deaths by day 7 (ITT overall (N = 28)): 2
- No. of deaths by day 28 (ITT overall (N = 28)): 4
- Odds ratio (95% CI), ordinal score at Day 7 [6]: 1.05
- Odds ratio (95% CI), ordinal score at Day 28 [6]: 1.01
- No. of deaths by day 7 [7]: 1
- No. of deaths by day 28 [7]: 2
- Odds ratio (95% CI), ordinal score at Day 7 (baseline ordinal score 2): 0.43
- Odds ratio (95% CI), ordinal score at Day 28 (baseline ordinal score 2): 0.43
- No. of deaths by day 7 [8]: 0
- No. of deaths by day 28 [8]: 1
- Odds ratio (95% CI), ordinal score at Day 7 (baseline ordinal score 3): 2.69
- Odds ratio (95% CI), ordinal score at Day 28 (baseline ordinal score 3): 2.21
- No. of deaths by day 7 [9]: 1
- No. of deaths by day 28 [9]: 1
- Odds ratio (95% CI), ordinal score at Day 7 (baseline ordinal score 4): 0.40
- Odds ratio (95% CI), ordinal score at Day 28 (baseline ordinal score 4): 0.62
- mortality rate [10]: 14.2%
- patients showing clinical improvement (at least a 2 point improvement in the 7 point ordinal scale) [10]: 57%
